Data on six compounds can be found in publication PMC7923228, “Phosphoinositide 3-Kinase (PI3K) Reactive Oxygen Species (ROS)-Activated Prodrug in Combination with Anthracycline Impairs PI3K Signaling, Increases DNA Damage Response and Reduces Breast Cancer Cell Growth” (International Journal of Molecular Sciences, 2021).

In data set [1] the test system is MDA-MB-453 cells. In words: MTT cell viability assay, 72 h.
Description: (§1) Growth kinetics of fibroblasts, MCF10A, MDA-MB-231, MDA-MB-361 and MDA-MB-453 cells was determined by the 4,5-dimethylthiazol-2-yl)-2,5-diphenyltetrazolium bromide (MTT) assay. Briefly, 2 × 10^4 cells/well were seeded in 96 well plates in triplicate. […] MDA-MB-231 cells were treated with 500–5000 nM, MDA-MB-361 with 50–450 nM and MDA-MB-453 with 100–4000 nM of doxorubicin for 72 h. […] MDA-MB-231 cells were treated with 50–50,000 pM docetaxel. MDA-MB-361 cells were treated with 10–90 nM of docetaxel. MDA-MB-453 cells were subjected 50–10,000 pM of docetaxel. The cell proliferation was analyzed after 72 h and represented as mean of triplicate values relative to DMSO control.
For data set [2], the system named is MDA-MB-231 cells. Nature of the data set: MTT cell viability assay, 72 h.
Description: as §1
In data set [3] the test system is MCF10A, MDA-MB-231, MDA-MB-361 and MDA-MB-453 cells. Nature of the data set: Intracellular ROS, DCFDA assay. The format is cell-based. Particulars: 125 nM, 30 min. The protocol: The cells were resuspended in dichlorodihydrofluorescein diacetate (DCFH-DA) for 30 min […] using the CellQuest software v4.0.1 (Becton Dickinson and Company, Franklin Lakes, NJ, USA) to measure the ROS levels. The DCFH-DA levels were measured using a SPECTRAmax PLUS Microplate Spectrophotometer Plate Reader (Molecular Devices Corporation).

The subject of data set [4] is MDA-MB-361 cells. In words: cells. Particulars: Homo sapiens, MDA-MB-361, 72 h.
Description: as §1
In data set [5] the test system is MDA-MB-231 cells.
Description: as §1
The test system of data set [6] is MDA-MB-361 cells.
Description: as §1
For data set [7], the system named is MDA-MB-453 cells.
Description: as §1
Data set [8] has as its system p-AKT, p-P53, p-CHK1, p-CHK2 in MDA-MB-231, MDA-MB-361 and MDA-MB-453 cells. The format is cell-based, Human. The conditions noted are these: for phosphorylation of AKT at Thr308: data not shown; for phosphorylation of CHK2 at T68: most notably in MDA-MB-361 and MDA-MB-453 versus vehicle control, 24 h. The text has this:
Cells were lysed in RIPA buffer (Thermo Fisher Scientific, Waltham, MA, USA, Cat#BP-115) supplemented with protease and phosphatase inhibitors (Thermo Fisher Scientific, Cat#88669). […] Peroxidase-conjugated secondary antibodies (Santa Cruz Biotechnology) were used and protein signals were detected using Pierce ECL western blotting substrate (Thermo Fisher Scientific, Cat# 32106).

In the next data set the test system is MCF10A cells. In words: cells. Particulars: for IC50: 72 h MTT. The class given is cell-based.
For another data set, the system named is NH fibroblasts. Nature of the data set: cells. The class given is cell-based.
A further data set concerns PI3Kɣ. On the set-up: method as in PMID 19584227. Particulars: read-out: IC50 against PI3Kɣ; cited from earlier work.
For data set [9], the system named is PIK3CA-mutated, hormone receptor (HR)-positive, HER2-negative advanced breast cancer. On the set-up: method as in PMID 31091374. Particulars: cited from earlier work.
The subject of data set [10] is MDA-MB-231, MDA-MB-361 and MDA-MB-453 cells. In words: MTT cell viability assay, combination treatments, 72 h. The class given is cell-based, Human.
Description: as §1

Where “and” joins values, the source holds several entries; their conditions need not be identical. Equal entries are not always repeated. Where two headings read alike, the source gives them in different places.

Description for MCF10A cells: as §1

As to `COc1cccc2c1C(=O)c1c(O)c3c(c(O)c1C2=O)C[C@@](O)(C(=O)CO)C[C@@H]3O[C@H]1C[C@H](N)[C@H](O)[C@H](C)O1` [Doxorubicin], the IC50 in the data set on MDA-MB-453 cells [1] (Homo sapiens, MDA-MB-453, 72 h, read-out: IC50 (MDA-MB-453)) is 0.579 µM; in the data set on MDA-MB-231 cells [2] (Homo sapiens, MDA-MB-231, 72 h, read-out: IC50 (MDA-MB-231)) it was 0.405 µM; with MDA-MB-361 cells [4] (read-out: IC50 (MDA-MB-361)), 0.116 µM; with MDA-MB-231 cells [5], 0.185 µM and 0.146 µM; in the data set with MDA-MB-361 cells [6] it was 0.111 µM and 0.11 µM and 0.0732 µM; in the data set on MDA-MB-453 cells [7] it was 0.529 µM and 0.516 µM and 0.478 µM. Also, the ROS levels entry in data set [3] was “induced ROS”. The “p53 phosphorylation at Ser15” value in data set [8] is on record as “didn’t observe p53 post-translational modification activation”. Besides, the “phosphorylation of AKT at Thr308” value in data set [8] was “no effect”. For the same compound, the “phosphorylation of CHK2 at T68” value in data set [8] is “increased phosphorylation”.
As to `CC(=O)N[C@@H](CS)C(=O)O` [NAC, N-Acetyl Cysteine], the “rescue of antiproliferative effects of RIDR-PI-103 and doxorubicin” value with MDA-MB-231 cells [2] (MDA-MB-231, 10 mM NAC, 125 nM doxorubicin ± 30 µM RIDR-PI-103, 24 hour) is “rescued the antiproliferative effects”.
Regarding `Oc1cccc(-c2nc(N3CCOCC3)c3oc4ncccc4c3n2)c1` [PI-103, 3-(4-morpholinopyrido[3′,2′:4,5]furo[3,2-d]pyrimidin-2-yl)phenol], the IC50 in the data set with MDA-MB-453 cells [1] (Homo sapiens, MDA-MB-453, 72 h) was 0.82 µM; in the data set on MCF10A cells (Homo sapiens, MCF-10A), 3.8 µM; with MDA-MB-361 cells [4], 1.7 µM; in the data set with NH fibroblasts (Fibroblast, fibroblasts, 72 h MTT), 3.9 µM; with PI3Kɣ, 0.015 µM.
For the compound `Cc1nc(NC(=O)N2CCC[C@H]2C(N)=O)sc1-c1ccnc(C(C)(C)C(F)(F)F)c1` [alpelisib, Alpelisib], in data set [9] (alpelisib in combination with fulvestrant, patients who had received endocrine therapy previously), the “improvement of progression-free survival compared with fulvestrant alone” value is listed as “about 5 months”. Also, in data set [9] (patients receiving alpelisib), the adverse events entry is on record as “high risk of hyperglycemia-related adverse events”.
For `CC(=O)O[C@@]12CO[C@@H]1C[C@H](O)[C@@]1(C)C(=O)[C@H](O)C3=C(C)[C@@H](OC(=O)[C@H](O)[C@@H](NC(=O)OC(C)(C)C)c4ccccc4)C[C@@](O)([C@@H](OC(=O)c4ccccc4)[C@H]21)C3(C)C` [docetaxel], in [10] (docetaxel + 10, 15 or 30 µM RIDR-PI-103, 72 h), the “suppression of breast cancer cell growth in combination with RIDR-PI-103” value was “less effective”.
Consider “ROS-induced drug release 3-(4-morpholinopyrido[3′,2′:4,5]furo[3,2-d]pyrimidin-2-yl)phenol [RIDR-PI-103]”, for which the IC50 in the data set on MDA-MB-453 cells [1] (MDA-MB-453, 72 h MTT) was determined as 49.1 µM; in the data set with MDA-MB-231 cells [2] (MDA-MB-231, 72 h MTT) it was 47.3 µM; in the data set with MCF10A cells, 78.6 µM; with MDA-MB-361 cells [6] (MDA-MB-361, 72 h MTT), 43 µM. The “response to treatment (growth)” value with MCF10A cells (50 µM or greater, 72 h) is “did not respond appreciably”; with NH fibroblasts (normal fibroblasts, 50 µM or greater, 72 h) it was “did not respond appreciably”. Also, in data set [10] (10, 15 and 30 µM RIDR-PI-103, MDA-MB-231, MDA-MB-361 and MDA-MB-453), the “effect on cytotoxicity of doxorubicin” value is recorded as “enhances the cytotoxicity”. For the same compound, in data set [10] (three breast cancer cell lines, 50 µM or greater, 72 h), the growth inhibition result was “showed growth inhibition”. In addition, the “phosphorylation of AKT at Thr308” value in data set [8] is listed as “no effect”. For the same compound, the “phosphorylation of CHK2 at T68” value in data set [8] was “increased phosphorylation”.
